Structures are written as SMILES.

Consider 1 compound from US10111822B2, “External dermal composition for anti-ageing and method for producing the same” (Hayashibara Co., Ltd., priority 2012, dated 2018).

Holding throughout (format): cell-based, human
The test system of one assay is occludin. Nature of the assay: TJ-related protein occludin in NHEK cells (Western). The note with it: 3 days, CaCl2 positive control = 100%, no addition 63%. The protocol:
(§1) The following experiment was conducted to examine the effect of ascorbic acid 2-glucoside on the production of TJ-related proteins that constitute cell-cell adhesion structures by focusing on occludin and ZO-1 that are focused on as TJ-related proteins known to exist in a granular layer of epidermis: As a model for typical normal human epidermal cells, NHEK cells were suspended in EpiLife medium (pH 7.4); inoculated to 12-well microplates at a cell density of 1×10^5 cells/well; cultured overnight under the conditions of 37° C. and 5% v/v CO2; and further cultured for three days under the conditions of 37° C. and 5% v/v CO2 after adding either CaCl2 as a positive control to each well to give a final concentration of 0.5 mM, or “AA2G”, a product name of a particulate composition containing anhydrous crystalline ascorbic acid 2-glucoside, commercialized by Hayashibara Co., Ltd., Okayama, Japan, to give a final concentration of 0.5 or 1 mM. […] A sample of 20 μg protein for each lane per each cell extract in respective wells was applied to sodium dodecyl sulfate polyacrylamide gel electrophoresis (SDS-PAGE) with 10% w/v SDS containing DTT, followed by assaying the concentration of occludin or ZO-1 in each cell extract with “Luminate Western HRP Substrates”, a product name of a premixed, ready-to-use chemiluminescent detection reagent using an internal standard “α-Tubulin”, commercialized by Merck KGaA, Darmstadt, Germany, wherein there were used “F-11”, a product name of an anti-occludin mouse monoclonal antibody, commercialized by Santa Cruz Biotechnology, Inc., Texas, USA, or “ZO1-1A12”, a product name of a ZO-1 mouse monoclonal antibody, commercialized by Invitrogen Corporation, Calif., USA, was used as a first antibody; and “PO447”, a product name of a horseradish peroxidase (HRPO) labeled anti-mouse IgG, commercialized by DAKO Japan Inc., Tokyo, Japan, or “PO448”, a product name of an HRPO-labeled anti-rabbit IgG, commercialized by DAKO Japan Inc., Tokyo, Japan, as a secondary antibody. […]

The test system of another assay is hyaluronic acid. The experiment in a line: Hyaluronic acid production in NHEK cells (ELISA). The note with it: 3 days, control 1003 ± 111.6. The text has this: In accordance with “Evaluation Method for Enhancing Hyaluronic acid Synthesis” disclosed in “Evaluation and Experimental Manual for Humectancy, Skin whitening, Anti-wrinkle, and Anti-oxidation”, edited by Hitoshi Masaki, published by Fragrance Journal, pp. 94 to 97, 2012, NHEK cells as a model for typical normal human epidermal cells were suspended in EpiLife medium (pH 7.4), commercialized by Invitrogen Corporation, Calif., USA, inoculated to 12-well microplates at a cell density of 5×10^4 cells/well, and incubated overnight under conditions of 37° C. and 5% v/v CO2. Thereafter, the cell culture medium was replaced with a fresh HuMedia-KG2 medium commercialized by Kurabo Industries Ltd., Osaka, Japan; and “AA2G”, a particulate composition containing anhydrous crystalline ascorbic acid 2-glucoside, commercialized by Hayashibara Co., Ltd., Okayama, Japan, was added to each well to give a final concentration of 0.25, 0.5, or 1 mM, followed by culturing the cells for three days under the conditions of 37° C. and 5% v/v CO2. After completion of the culture, the supernatant in each well was immediately collected and quantified for hyaluronic acid by “Hyaluronan, DuoSet Kit”, product code: DY3614, a product name of a commercialized enzyme-linked immunosorbent assay (ELISA) purchased from R & D Systems, Minneapolis, USA. As a control, there was provided a culture system, where cells are cultured similarly as above except for not adding ascorbic acid 2-glucoside.
For orientation: In an ELISA, binding on a coated surface is turned into a signal by an enzyme label.

The subject of another assay is glutathione. The experiment in a line: Production level of glutathione in A431 cells. The following applies: 1 mM, 24 h, control = 100%. On the procedure:
To Dulbecco's MEM medium, containing 10% v/v calf fetal serum and an antibiotic (abbreviated as “D-MEM”, hereinafter), were added ascorbic acid 2-glucoside, a reagent grade specimen commercialized by Hayashibara Co., Ltd., Okayama, Japan, or L-ascorbic acid, a special reagent grade specimen commercialized by Wako Pure Chemical Industries, Ltd., Tokyo, Japan, […]
Continuously-cultivated A431 cells in D-MEM medium were collected, resuspended in D-MEM medium, inoculated to culture plates with 10 cm in diameter (φ) in an amount of 1×10^6 cells/10 mL/plate, and cultured for 24 hours. Thereafter, the culture supernatants were removed by sucking, and the remaining cells were added with any of the test solutions in an amount of 10 mL/plate and cultured for another 24 hours. As a control, cells were added with only D-MEM medium in an amount of 10 mL/plate and cultured for 24 hours. To each plate, which had been removed its culture supernatant, was added ice-chilled Dulbecco's PBS (−) commercialized by Nissui Pharmaceutical Co., Ltd., Tokyo, Japan, to wash cells, which were then collected with a scraper. Glutathione was quantified with “Glutathione Assay Kit”, a commercially available glutathione assay kit commercialized by BioVision, Inc., San Francisco, USA. In this experiment, the control and test solutions were respectively assayed by using three plates respectively, and the data were averaged for obtaining a glutathione production level for each plate. A5% v/v CO2 incubator was used for culturing A431 cells in any case. Relative values of test samples were determined with the proviso that the production levels of reduced glutathione and total glutathione levels in A431 cells that had been cultured with only D-MEM medium were respectively regarded as 100%, and the results are in Table 4.

In the next assay the test system is ZO-1. The experiment in a line: TJ-related protein ZO-1 in NHEK cells (Western). The note with it: 3 days, CaCl2 positive control = 100%, no addition 38%. On the procedure: as §1

`O=C1O[C@H]([C@@H](O)CO)C(O)=C1O[C@H]1O[C@H](CO)[C@@H](O)[C@H](O)[C@H]1O` [ascorbic acid 2-glucoside, 2-O-α-D-glucosyl-L-ascorbic acid]: the “Occludin concentration in cell extract” value is given as 78% in the assay with occludin (0.5 mM) and 85% with occludin (1 mM). For the same compound, the “Hyaluronic acid concentration in culture supernatant” value in the assay on hyaluronic acid (0.25 mM) came out at 1222 ± 93.6 ng/mL; in the assay on hyaluronic acid (0.5 mM), 1268 ± 125.2 ng/mL; in the assay with hyaluronic acid (1 mM), 1436 ± 216 ng/mL. In the assay on glutathione, the Total glutathione turned out to be 106%. The results for the “ZO-1 Concentration in cell extract” value in the assay on ZO-1 (0.5 mM) and with ZO-1 (1 mM) were 72% and 92%, respectively.
